Reference: patent US20140018347A1, “BENZOXAZEPINES AS INHIBITORS OF mTOR AND METHODS OF THEIR USE AND MANUFACTURE” (Exelixis, Inc., priority 2010, published 2014)

Tests used:
mTORC1 = mTORC1 (Homo sapiens, UniProt P42345); assay: mTOR/GbL/Raptor (mTORC1) ELISA Assay; type: biochemical; details: phosphorylation of 4E-BP1; 0.2 nM mTORC1, 10 μM ATP
Method in brief: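 Kinase reaction: 0.2 nM mTORC1, 10 μM ATP, 50 nM NHis-4E-BP1 in Hepes pH 7.2 with 10 mM MnCl2, 120 min at ambient temperature. Phospho-4E-BP1 was captured on Ni-chelate plates and detected by anti-phospho-4E-BP1 rabbit IgG, HRP secondary and chemiluminescence.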

PI3Kalpha = PI3Kalpha (Homo sapiens, UniProt P42336); assay: PI3K Biochemical Assays (PI3K-alpha assay); details: ATP consumption, luciferase-luciferin; 1 μM ATP, 10 μM PIP2
Sequence of PI3Kalpha (P42336 whole entry, canonical isoform): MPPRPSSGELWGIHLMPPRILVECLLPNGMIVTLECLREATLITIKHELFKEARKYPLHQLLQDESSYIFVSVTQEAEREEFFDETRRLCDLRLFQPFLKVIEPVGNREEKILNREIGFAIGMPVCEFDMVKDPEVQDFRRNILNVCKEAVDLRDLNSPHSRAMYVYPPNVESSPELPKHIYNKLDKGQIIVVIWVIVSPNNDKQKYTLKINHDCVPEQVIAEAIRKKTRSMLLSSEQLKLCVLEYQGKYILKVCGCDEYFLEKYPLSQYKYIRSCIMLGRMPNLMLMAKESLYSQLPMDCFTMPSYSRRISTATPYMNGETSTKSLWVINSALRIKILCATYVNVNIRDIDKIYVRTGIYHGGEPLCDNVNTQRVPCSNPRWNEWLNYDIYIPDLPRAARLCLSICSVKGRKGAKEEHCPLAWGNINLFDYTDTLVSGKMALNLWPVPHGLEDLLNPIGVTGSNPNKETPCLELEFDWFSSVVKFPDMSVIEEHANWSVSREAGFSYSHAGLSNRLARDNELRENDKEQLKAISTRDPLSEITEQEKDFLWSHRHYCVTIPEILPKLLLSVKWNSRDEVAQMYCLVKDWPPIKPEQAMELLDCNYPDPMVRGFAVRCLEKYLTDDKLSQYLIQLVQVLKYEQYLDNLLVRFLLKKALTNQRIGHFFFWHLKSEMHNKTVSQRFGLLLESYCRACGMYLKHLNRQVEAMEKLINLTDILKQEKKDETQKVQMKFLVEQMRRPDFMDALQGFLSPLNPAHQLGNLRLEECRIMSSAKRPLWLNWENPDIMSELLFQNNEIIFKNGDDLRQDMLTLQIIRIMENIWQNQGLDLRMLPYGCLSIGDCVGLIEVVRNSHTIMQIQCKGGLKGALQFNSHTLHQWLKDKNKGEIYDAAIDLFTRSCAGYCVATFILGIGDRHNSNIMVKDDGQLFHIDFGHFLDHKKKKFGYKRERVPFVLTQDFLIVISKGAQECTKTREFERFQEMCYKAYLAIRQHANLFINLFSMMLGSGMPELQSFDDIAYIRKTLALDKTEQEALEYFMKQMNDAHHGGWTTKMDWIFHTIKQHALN
Sequence of PI3Kalpha (P27986 whole entry partner, canonical isoform): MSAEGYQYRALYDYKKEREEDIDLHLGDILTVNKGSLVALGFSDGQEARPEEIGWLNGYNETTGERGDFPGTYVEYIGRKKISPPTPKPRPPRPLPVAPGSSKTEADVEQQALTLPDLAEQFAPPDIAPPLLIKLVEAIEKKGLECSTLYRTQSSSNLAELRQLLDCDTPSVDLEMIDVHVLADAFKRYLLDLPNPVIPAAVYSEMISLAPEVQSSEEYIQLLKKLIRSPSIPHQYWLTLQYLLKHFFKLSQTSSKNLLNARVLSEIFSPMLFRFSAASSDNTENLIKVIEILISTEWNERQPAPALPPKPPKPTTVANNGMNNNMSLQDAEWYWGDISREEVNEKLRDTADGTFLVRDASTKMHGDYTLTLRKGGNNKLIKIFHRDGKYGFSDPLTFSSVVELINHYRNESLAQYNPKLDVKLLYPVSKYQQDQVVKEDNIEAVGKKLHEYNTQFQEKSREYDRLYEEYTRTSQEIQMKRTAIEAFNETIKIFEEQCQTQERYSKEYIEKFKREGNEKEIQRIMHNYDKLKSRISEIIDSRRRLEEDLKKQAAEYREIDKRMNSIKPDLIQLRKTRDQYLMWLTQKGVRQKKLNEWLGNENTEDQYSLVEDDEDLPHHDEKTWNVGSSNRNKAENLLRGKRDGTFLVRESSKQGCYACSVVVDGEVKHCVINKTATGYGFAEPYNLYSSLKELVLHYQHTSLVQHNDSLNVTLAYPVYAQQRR
Method in brief: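 Recombinant PI3Kα 3 nM, ATP 1 μM and PIP2 10 μM in Tris pH 7.5 with 10 mM MgCl2, ~2 h at ambient temperature. ATP depletion (held to 40-60%) was read by Kinase-Glo luminescence for IC50. Other isoforms: β 10 nM, δ 4 nM; γ 40 nM, 1 h, 5 mM MgCl2.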

`C=CCc1c(C)nc(CN(C)C)nc1N1CCOc2ccc(-c3cnc4sc(N)nc4c3)cc2C1` [Compound 70, 6-(4-{2-[(dimethylamino)methyl]-6-methyl-5-prop-2-en-1-ylpyrimidin-4-yl}-2,3,4,5-tetrahydro-1,4-benzoxazepin-7-yl)[1,3]thiazolo[5,4-b]pyridin-2-amine] gave an IC50 (mTORC1) of at most 100 nM and an IC50 (PI3Kalpha) of at most 100 nM.
For `C#CCc1c(C)nc(N)nc1N1CCOc2ccc(-c3cnc4sc(N)nc4c3)cc2C1` [Compound 71, 6-[4-(2-amino-6-methyl-5-prop-2-yn-1-ylpyrimidin-4-yl)-2,3,4,5-tetrahydro-1,4-benzoxazepin-7-yl][1,3]thiazolo[5,4-b]pyridin-2-amine], the IC50 (mTORC1) was at most 100 nM and the IC50 (PI3Kalpha) was at most 100 nM.
For `Cc1nc(N)nc(N2CCOc3ccc(-c4cnc5sc(N)nc5c4)cc3C2)c1C#N` [Compound 72, 2-amino-4-[7-(2-amino[1,3]thiazolo[5,4-b]pyridin-6-yl)-2,3-dihydro-1,4-benzoxazepin-4(5H)-yl]-6-methylpyrimidine-5-carbonitrile], the IC50 (mTORC1) was at most 100 nM and the IC50 (PI3Kalpha) was at most 100 nM.
`Cc1c(N)nc(N)nc1N1CCOc2ccc(-c3cnc4sc(N)nc4c3)cc2C1` [Compound 73, 6-[7-(2-amino[1,3]thiazolo[5,4-b]pyridin-6-yl)-2,3-dihydro-1,4-benzoxazepin-4(5H)-yl]-5-methylpyrimidine-2,4-diamine] showed an IC50 (mTORC1) of 100 to 500 nM and an IC50 (PI3Kalpha) of at most 100 nM.
`C#Cc1c(C)nc(N)nc1N1CCOc2ccc(-c3cnc4sc(N)nc4c3)cc2C1` [Compound 74, 6-[4-(2-amino-5-ethynyl-6-methylpyrimidin-4-yl)-2,3,4,5-tetrahydro-1,4-benzoxazepin-7-yl][1,3]thiazolo[5,4-b]pyridin-2-amine] was tested, and the IC50 (mTORC1) was at most 100 nM and the IC50 (PI3Kalpha) was at most 100 nM.
Compound `C/C=C/c1c(Cl)nc(N)nc1N1CCOc2ccc(-c3cnc4sc(N)nc4c3)cc2C1` [Compound 75, 6-(4-{2-amino-6-chloro-5-[(1E)-prop-1-en-1-yl]pyrimidin-4-yl}-2,3,4,5-tetrahydro-1,4-benzoxazepin-7-yl)[1,3]thiazolo[5,4-b]pyridin-2-amine] has an IC50 (mTORC1) of at most 100 nM and an IC50 (PI3Kalpha) of at most 100 nM.
`C=CCc1c(Cl)nc(N)nc1N1CCOc2ccc(-c3cnc4sc(N)nc4c3)cc2C1` [Compound 76, 6-[4-(2-amino-6-chloro-5-prop-2-en-1-ylpyrimidin-4-yl)-2,3,4,5-tetrahydro-1,4-benzoxazepin-7-yl][1,3]thiazolo[5,4-b]pyridin-2-amine] showed an IC50 (mTORC1) of at most 100 nM and an IC50 (PI3Kalpha) of at most 100 nM.
`CC#Cc1c(C)nc(N)nc1N1CCOc2ccc(-c3cnc4sc(N)nc4c3)cc2C1` [Compound 77, 6-[4-(2-amino-6-methyl-5-prop-1-yn-1-ylpyrimidin-4-yl)-2,3,4,5-tetrahydro-1,4-benzoxazepin-7-yl][1,3]thiazolo[5,4-b]pyridin-2-amine] gave an IC50 (mTORC1) of at most 100 nM and an IC50 (PI3Kalpha) of at most 100 nM.
`Nc1ncc(C(F)(F)F)c(N2CCOc3ccc(-c4cnc5sc(N)nc5c4)cc3C2)n1` [Compound 78, 6-{4-[2-amino-5-(trifluoromethyl)pyrimidin-4-yl]-2,3,4,5-tetrahydro-1,4-benzoxazepin-7-yl}[1,3]thiazolo[5,4-b]pyridin-2-amine] showed an IC50 (mTORC1) of at most 100 nM and an IC50 (PI3Kalpha) of at most 100 nM.
Work on `N#Cc1cnc(N)nc1N1CCOc2ccc(-c3cnc4sc(N)nc4c3)cc2C1` [Compound 79, 2-amino-4-[7-(2-amino[1,3]thiazolo[5,4-b]pyridin-6-yl)-2,3-dihydro-1,4-benzoxazepin-4(5H)-yl]pyrimidine-5-carbonitrile] yielded an IC50 (mTORC1) of 100 to 500 nM and an IC50 (PI3Kalpha) of at most 100 nM.
In the case of `Nc1cc(N2CCOc3ccc(-c4cnc5sc(N)nc5c4)cc3C2)nc(N)n1` [Compound 80, 6-[7-(2-amino[1,3]thiazolo[5,4-b]pyridin-6-yl)-2,3-dihydro-1,4-benzoxazepin-4(5H)-yl]pyrimidine-2,4-diamine], the IC50 (mTORC1) is reported as 100 to 500 nM and the IC50 (PI3Kalpha) is reported as at most 100 nM.
Compound `Nc1nc2cc(-c3ccc4c(c3)CN(c3ncc(C(F)(F)F)c(N)n3)CCO4)cnc2s1` [Compound 81, 6-{4-[4-amino-5-(trifluoromethyl)pyrimidin-2-yl]-2,3,4,5-tetrahydro-1,4-benzoxazepin-7-yl}[1,3]thiazolo[5,4-b]pyridin-2-amine] has an IC50 (mTORC1) of 100 to 500 nM and an IC50 (PI3Kalpha) of 100 to 500 nM.
`Cc1nc(CNCCF)nc(N2CCOc3ccc(-c4cnc5sc(N)nc5c4)cc3C2)c1C(C)C` [Compound 82, 6-{4-[2-{[(2-fluoroethyl)amino]methyl}-6-methyl-5-(1-methylethyl)pyrimidin-4-yl]-2,3,4,5-tetrahydro-1,4-benzoxazepin-7-yl}[1,3]thiazolo[5,4-b]pyridin-2-amine] gave an IC50 (mTORC1) of at most 100 nM and an IC50 (PI3Kalpha) of at most 100 nM.
For `C=CCc1c(C)nc(N)nc1N1CCOc2ccc(-c3cnc4sc(N)nc4c3)cc2C1` [Compound 83, 6-[4-(2-amino-6-methyl-5-prop-2-en-1-ylpyrimidin-4-yl)-2,3,4,5-tetrahydro-1,4-benzoxazepin-7-yl][1,3]thiazoloJ-[5,4-b]pyridin-2-amine], the IC50 (mTORC1) was at most 100 nM and the IC50 (PI3Kalpha) was at most 100 nM.
Work on `CC1(C)CC(=O)c2sc(N3CCOc4ccc(-c5cnc6sc(N)nc6c5)cc4C3)nc2C1` [Compound 84, 2-[7-(2-amino[1,3]thiazolo[5,4-b]pyridin-6-yl)-2,3-dihydro-1,4-benzoxazepin-4(5H)-yl]-5,5-dimethyl-5,6-dihydro-1,3-benzothiazol-7(4H)-one] yielded an IC50 (mTORC1) of 100 to 500 nM and an IC50 (PI3Kalpha) of 500 to 2500 nM.
`CC1(C)Cc2nc(N3CCOc4ccc(-c5cnc6sc(N)nc6c5)cc4C3)sc2C(=O)N1` [Compound 85, 2-[7-(2-amino[1,3]thiazolo[5,4-b]pyridin-6-yl)-23-dihydro-1,4-benzoxazepin-4(5H)-yl]-6,6-dimethyl-6,7-dihydro[1,3]thiazolo[5,4-c]pyridin-4(5H)-one] showed an IC50 (mTORC1) of at most 100 nM and an IC50 (PI3Kalpha) of 100 to 500 nM.
Compound `Nc1nc2cc(-c3ccc4c(c3)CN(c3ccnc([N+](=O)[O-])c3)CCO4)cnc2s1` [Compound 93, 6-[4-(2-nitropyridin-4-yl)-2,3,4,5-tetrahydro-1,4-benzoxazepin-7-yl][1,3]thiazolo[5,4-b]pyridin-2-amine] has an IC50 (mTORC1) of 100 to 500 nM and an IC50 (PI3Kalpha) of 500 to 2500 nM.
Compound `Nc1cc(N2CCOc3ccc(-c4cnc5sc(N)nc5c4)cc3C2)ccn1` [Compound 94, 6-[4-(2-aminopyridin-4-yl)-2,3,4,5-tetrahydro-1,4-benzoxazepin-7-yl][1,3]thiazolo[5,4-b]pyridin-2-amine] has an IC50 (mTORC1) of 500 to 2500 nM and an IC50 (PI3Kalpha) of 500 to 2500 nM.
`CC(C)c1cnc(N)nc1N1CCOc2ccc(-c3cnc4sc(N)nc4c3)cc2C1` [Compound 95, 6-{4-[2-amino-5-(1-methylethyl)pyrimidin-4-yl]-2,3,4,5-tetrahydro-1,4-benzoxazepin-7-yl}[1,3]thiazolo[5,4-b]pyridin-2-amine] was tested, and the IC50 (mTORC1) was at most 100 nM and the IC50 (PI3Kalpha) was at most 100 nM.
Compound `COC(C)c1c(Cl)nc(N)nc1N1CCOc2ccc(-c3cnc4sc(N)nc4c3)cc2C1` (centres unmarked) [Compound 96, 6-(4-{2-amino-6-chloro-5-[1-(methyloxy)ethyl]pyrimidin-4-yl)-2,3,4,5-tetrahydro-1,4-benzoxazepin-7-yl)[1,3]thiazolo[5,4-b]pyridin-2-amine] has an IC50 (mTORC1) of at most 100 nM and an IC50 (PI3Kalpha) of at most 100 nM.
Compound `CC1=CC(C)(C)Cc2c1nc(N)nc2N1CCOc2ccc(-c3cnc4sc(N)nc4c3)cc2C1` [Compound 97, 4-[7-(2-amino[1,3]thiazolo[5,4-b]pyridin-6-yl)-2,3-dihydro-1,4-benzoxazepin-4(5H)-yl]-6,6,8-trimethyl-5,6-dihydroquinazolin-2-amine] has an IC50 (mTORC1) of at most 100 nM and an IC50 (PI3Kalpha) of at most 100 nM.
For `CC1=Cc2nc(N)nc(N3CCOc4ccc(-c5cnc6sc(N)nc6c5)cc4C3)c2CC1(C)C` [Compound 98, 4-[7-(2-amino[1,3]thiazolo[5,4-b]pyridin-6-yl)-2,3-dihydro-1,4-benzoxazepin-4(5H)-yl]-6,6,7-trimethyl-5,6-dihydroquinazolin-2-amine], the IC50 (mTORC1) was at most 100 nM and the IC50 (PI3Kalpha) was at most 100 nM.
With `Cc1nc(N)nc(N2CCOc3ccc(-c4cnc5sc(N)nc5c4)cc3C2)c1C(C)C` [Compound 100] the IC50 (mTORC1) was at most 100 nM and the IC50 (PI3Kalpha) was at most 100 nM.
In the case of `Cc1nc(N)nc(N2CCOc3c(F)cc(-c4cnc5sc(N)nc5c4)cc3C2)c1C(C)C` [Compound 101, 6-{4-[2-amino-6-methyl-5-(1-methylethyl)pyrimidin-4-yl]-9-fluoro-2,3,4,5-tetrahydro-1,4-benzoxazepin-7-yl}[1,3]thiazolo[5,4-b]pyridin-2-amine], the IC50 (mTORC1) is reported as at most 100 nM and the IC50 (PI3Kalpha) is reported as at most 100 nM.
`Cc1nc(N)nc(N2CCOc3c(Cl)cc(-c4cnc5sc(N)nc5c4)cc3C2)c1C(C)C` [Compound 102, 6-{4-[2-amino-6-methyl-5-(1-methylethyl)pyrimidin-4-yl]-9-chloro-2,3,4,5-tetrahydro-1,4-benzoxazepin-7-yl}[1,3]thiazolo[5,4-b]pyridin-2-amine] gave an IC50 (mTORC1) of at most 100 nM and an IC50 (PI3Kalpha) of at most 100 nM.
